# Assay: AUC(0 to infinity) in Sprague-Dawley rat at 20 mg/kg, po measured upto 24 hrs by LC-MS/MS analysis
# Assay type: ADME, organism-based
# Design: time < 24 hrs, dose 20 mg/kg, route po
# Conditions: in vivo
smiles,measurement,value
CC[C@@H]1CN(C(=O)c2cc(Cn3c(=O)[nH]c(=O)c4ccccc43)ccc2F)CCN1CC,AUC(0-inf),338 ng·h/mL

# From ChEMBL document CHEMBL5053536, “Discovery of Quinazoline-2,4(1H,3H)-dione Derivatives Containing 3-Substituted Piperizines as Potent PARP-1/2 Inhibitors─Design, Synthesis, In Vivo Antitumor Activity, and X-ray Crystal Structure Analysis” (J Med Chem, 2021)
